Experimental data published in ChEMBL document CHEMBL5543154, “Structural Elucidation and Antiviral Activity of Covalent Cathepsin L Inhibitors” (J Med Chem, 2024).

Tests used:
SARS-CoV-2 [1] = type: functional, Severe acute respiratory syndrome coronavirus 2, Omicron, Vero; conditions: dose 100 nM; time 24 hrs
SARS-CoV-2 [2] = test: Antiviral activity against SARS CoV-2 USA-WA1/2020 infected in african green monkey Vero 76 cells assessed as virus-induced cytopathic effect incubated for 5 days by neutral red uptake assay; type: functional, organism-based; conditions: Severe acute respiratory syndrome coronavirus 2, USA-WA1/2020, Vero 76, 120 h
[3] = Cytotoxicity against african green monkey Vero 76 cells assessed as reduction in cell viability incubated for 48 hrs by neutral red uptake assay; type: toxicity, cell-based; conditions: chlorocebus sabaeus
[4] = target: Procathepsin L (Homo sapiens) (UniProt P07711); test: Binding affinity to Cathepsin L (unknown origin) expressed in Komagataella pastoris GS115 assessed as thermal stabilization by mesuring melting temperature by nanoDSF analysis
Sequence of Procathepsin L (Homo sapiens) (P07711 114-333 limits assumed): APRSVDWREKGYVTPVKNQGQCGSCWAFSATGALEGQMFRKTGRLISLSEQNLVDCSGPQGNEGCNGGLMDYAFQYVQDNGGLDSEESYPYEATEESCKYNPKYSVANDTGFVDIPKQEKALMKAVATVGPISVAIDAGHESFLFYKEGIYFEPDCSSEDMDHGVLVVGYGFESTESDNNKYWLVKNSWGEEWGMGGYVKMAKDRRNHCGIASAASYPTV

SMILES	Activity (SARS-CoV-2 [1])	EC50 (SARS-CoV-2 [2])	CC50 at 48 h [3]	ΔTm [4]
CCCC(NC(=O)C(CC(C)C)NC(=O)OCc1ccccc1)C(=O)C(=O)NCc1ccccn1 (centres undefined)	50%	< 1 µM	> 50 µM	
CN(C)C(=O)C(Cc1ccccc1)NC(=O)[C@H]1O[C@@H]1C(=O)NCCc1ccccn1 (relative stereo)				12 °C
